Laboratory results: publication PMC9397467 (Virulence, 2022)

Target: T1, Sortase A (SrtA) (Staphylococcus aureus, UniProt Q2FV99)
T1 sequence (Q2FV99 60-206 limits assumed): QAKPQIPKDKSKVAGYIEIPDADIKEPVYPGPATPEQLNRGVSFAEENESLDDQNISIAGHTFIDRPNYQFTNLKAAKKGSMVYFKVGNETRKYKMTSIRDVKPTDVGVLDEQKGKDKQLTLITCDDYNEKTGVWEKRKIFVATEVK
Experiment: fluorescence quenching
Format: binding

Kd: 13.8 µM
Structure (SMILES): Oc1cc(O)c2cc(O)c(-c3ccc(O)c(O)c3)[o+]c2c1 [cyanidin chloride]
